Data set [1] relates to Fischer or Sprague-Dawley rats. The note with it: cited from earlier work; for alopecia in young rats after treatment: starting from the head, around one to two weeks after treatment.
In a further data set the test system is Sprague-Dawley rats. The note with it: ip chemotherapy. Here is the method:
8-day old Sprague-Dawley rats are treated topically with liposome compositions as described in Example 1 containing a compound such as p21 to be screened for its effect on chemotherapy-induced alopecia. The liposome composition is provided at a concentration of 100 μg/ml in 1 mM β-mercaptoethanol, for 2 days. […] The rats are then treated with cyclophosphamide, CTX (35 mg/kg, ip once) with the combination of CTX (25 mg/kg)+doxorubicin, DOX (2.5 mg/kg), ip once per day for 3 days, respectively. One rat pup without chemotherapy was used as control.

A further data set deals with patients. The following applies: cited from earlier work.
The subject of data set [2] is hair follicles. Description: Liposome-mediated delivery of melanin to hair follicles in white-haired mouse skin histoculture. In kind it is cell-based.
Procedure: To that end, liposomes were prepared by sonication. About 20 mg of egg phosphatidycholine was rotary evaporated with a vacuum drier from a chloroform solution to form a thin film on the walls of a 5 ml round-bottomed flask for about 1 hour. The dried thin film phospholipid was suspended in about 0.5 ml phosphate buffered saline (pH 7.4) on a vortex mixer and then sonicated with a Branson probe-type sonicator fitted with a microtip at power level 3 for about 8 minutes. Then 0.5 ml of a solution of melanin (10 mg/ml) was entrapped with the above suspension by sonication for about an additional 4 minutes. Liposomes were separated from the non-entrapped melanin by gel-filtration on a Sepharose 4B column equilibrated with phosphate buffered saline.
Pieces of outbred white-haired mouse skin derived from 1-2 weeks-old animals (about 2×5×2 mm each) were harvested under a dissection microscope. […] Liposome interaction with the skin was initiated after about 24 hours of histoculture. Mouse skin histocultures were incubated for about 12 hours with liposomes. […]
The skin histocultures were counter-stained with the dye 2′,7′-bis(2-carboxyethyl)-5 which is activated to fluorescence by nonspecific esterases present only in living cells. After the tissues were thoroughly washed, the specimens were analyzed with a Nikon fluorescence microscope equipped with a fluorescein cube. […]
The subject of data set [3] is hair follicles. Description: In vivo topical liposome-melanin coloring of regrowing hair in depilated white-haired mice. Details: species or system mouse. An excerpt:
3-4 week old white-haired mice were depilated by a mixture of bees wax and rosin gum. Topical application of liposome-melanin as described herein was started on day 6 after depilation. […] The skin surface was then washed with an excess of water and wipe-dried with a gauze pad. The out-growing hair was micro-photographed. The same concentration of naked melanin solution as entrapped into liposomes was used as the control. In another experiment, 3-4 week old white-haired mice were depilated by a mixture of bees wax and rosin gum. Topical application of liposome-melanin composition was started on day 10 after depilation. The melanin used in this experiment was from Biosource, SF, CA #MM-8A-1. The liposome-melanin composition was applied on the skin of mice twice per day for 3 days. The treated skin surface was then washed with an excess of water and wipe-dried with a gauze pad. The mice were then photographed. The same concentration of naked melanin solution as entrapped into liposomes was used as the control.

Data set [4] deals with hair follicles. The note with it: mouse, in vivo. Here is the method:
Liposomes were prepared essentially as described in Example 1. […] Thereafter, 0.5 ml of either calcein (10 mg/ml) or melanin (10 mg/ml) solution, respectively, were added to sonicated PC liposome composition, and further sonicated for 6 minutes, followed by freeze-thawing three times. […] A sample of about 250 microliters of the liposome composition entrapping calcein or melanin was applied directly to the dorsal skin on the mouse in an area of approximately 1.5 cm^2 using a sutured band-aid patch to immobilize the liposome composition onto the skin and to prevent evaporation. The liposome composition was re-applied every 1 hour for 6 hours, with the last application remaining for a total of 24 hours at which time the skin samples were taken by punch biopsy for analysis. For time course experiments, one mouse was used for each time period, with 6 punch biopsies taken from each mouse, at 0.5, 1, 2, 4, 6, 16 and 24 hours. […] Skin samples containing calcein were also analyzed by spectrofluorimetry to determine the effective concentration of a delivered beneficial compound into a selected tissue. […] The sonicated sample was then centrifuged for 10 minutes in a microcentrifuge at 14,000×g, and the resulting supernatant was measured by spectrofluorimetry at an excitation wavelength of 496 nm and an emission wavelength of 517 nm for detecting calcein. The concentration of calcein delivered into the skin tissue was determined from the spectrofluorometric readings by comparison to a standard curve. Skin samples containing melanin were also analyzed by is spectrophotometry to determine the effective concentration of a delivered beneficial compound into a selected tissue. […] The sonicated sample was then centrifuged for 10 minutes in a microcentrifuge at 14,000×g, and the resulting supernatant was measured by spectrophotometry at an absorption wavelength of 300 nm for detecting absorption by melanin. The concentration of melanin delivered into the skin tissue was determined from the spectrophotometric readings by comparison to a standard curve.

Data set [5] relates to hair follicles. Description: Liposome-mediated delivery of calcein dye to hair follicles in mouse skin histoculture. In kind it is cell-based. Here is the method:
For the histoculture of skin, pieces of shaved outbred white-haired-mouse or nude-mouse skin, approximately 2×5×2 mm, were harvested under a dissection microscope and then histocultured on collagen-gel supported sponge as described by Li et al., Proc. Natl. Acad. Sci. USA 88:1908-1912, 1991. Histoculture was continued for about 24 hours prior to contacting the skin histoculture with the liposome preparation.
Liposomes were prepared by sonication of about 15 mg or 25 mg, preferably 25 mg, phosphatidylcholine (PC) emulsion in phosphate buffered saline (PBS) containing about 20 mg/ml of the fluorescent dye calcein. Liposomes were also prepared by entrapping NBD-phosphatidylcholine fluorescent dye using an emulsion with about 20 mg/ml of the NBD formulation. Liposomes were separated from the non-entrapped dye by gel-filtration on a Sepharose 4B column diluted with phosphate buffered saline. The amount of entrapped dye was measured spectrofluorometrically. Two types of PC were used: egg PC (EPC) and dipalmitoyl PC (DPPC). Due to their phase transition temperatures, liposomes made of DPPC are in a gel phase at about 37° C. while liposomes prepared from EPC are in a liquid-crystalline state.
Samples of the mouse skin histocultures were incubated for about 20 minutes with each of the liposomes and with a solution of “free” calcein dye at the same concentrations used in the liposome preparation. After the tissue samples were thoroughly washed with culture medium free of liposomes to remove excess liposome composition, the specimens were analyzed with a BioRad MRC 600 laser confocal microscope with a BHS filter block, which excites the tissue at 488 nm and passes the light emitted at 520 nm. These parameters are close to the excitation and emission maxima reported for calcein, Haugland, (Ed.) Molecular probes. Handbook of Fluorescent Probes and Research Chemicals, Molecular Probes, Inc., Eugene, (1989-1991 and 1992-1993). There is no autofluorescence of tissue when these emission and excitation wavelengths are used. […]

For `C=C1/C(=C\C=C2/CCC[C@]3(C)[C@@H]([C@H](C)CCCC(C)(C)O)CC[C@@H]23)C[C@@H](O)C[C@@H]1O` [1,25-dihydroxyvitamin D3], the “prevention of alopecia induced by cytoxan or etoposide” value in data set [1] (topical) is on record as “prevents alopecia induced by cytoxan or etoposide”.
For `O=P1(N(CCCl)CCCl)NCCCO1` (centres unmarked) [CTX, cyclophosphamide], the “other toxic effects in rat pups” value with Sprague-Dawley rats is listed as “No other toxic effects were noted”. Further, the “alopecia in rat pups” value in the data set with Sprague-Dawley rats (noted at day-7) is reported as “alopecia can be seen”. For the same compound, the “patients with severe alopecia” value in the data set on patients (intravenous) is recorded as 75-90%. Also, the “alopecia in young rats after treatment” value in data set [1] was “develop alopecia”.
Regarding `Nc1ccn([C@@H]2O[C@H](CO)[C@@H](O)[C@@H]2O)c(=O)n1` [ara-C], the “alopecia in young rats after treatment” value in data set [1] is reported as “develop alopecia”.
As to melanin [naked melanin], in the data set with hair follicles [2], the “localization of melanin in hair follicles and hair shafts (H&E paraffin section)” value is reported as “no “free” melanin can be observed either in hair shafts or the hair follicular cells”. Besides, the “coloring of out-growing hair” value in the data set on hair follicles [3] (topical once per day for 4 days from day 6 after depilation) is “No hair coloring is observed”. Moreover, the “coloring of regrown hair” value with hair follicles [3] (topical twice per day for 3 days from day 10 after depilation) is “regrown hair remained white”. The “melanin delivered to the hair follicles” value with hair follicles [4] is recorded as “less than 2.0 ug/mm^2”.
`O=C(O)CN(CC(=O)O)Cc1cc2c(cc1O)Oc1cc(O)c(CN(CC(=O)O)CC(=O)O)cc1C21OC(=O)c2ccccc21` [free calcein, calcein]: the “delivery of calcein into hair follicles by topical use” value in the data set on hair follicles [5] (histoculture topically treated 48 hours) is on record as “rarely penetrated through the skin to stain the hair follicles”. In the data set on hair follicles [5] (histoculture treated 48 hours, propidium iodide counterstain), the “delivery of green fluorescent dye to hair follicles and shafts” value is reported as “very weak staining of a few hair follicles”. Besides, the “delivery of fluorescent dye to hair follicles (confocal fluorescence microscopy)” value in the data set on hair follicles [5] (skin histoculture incubated about 20 minutes) is “relatively low fluorescence with no preferential staining of any particular skin structure”. In addition, in the data set with hair follicles [4], the “delivery of calcein into hair follicles and shafts (fluorescent microscopy)” value is “trapped in the stratum corneum and did not enter the hair shafts or follicles”. For the same compound, the “calcein delivered in the hair follicles” value in the data set on hair follicles [4] (outbred white-haired, 24 h) is “about 1.4 ng/mm^2”.
In the case of `COc1cccc2c1C(=O)c1c(O)c3c(c(O)c1C2=O)C[C@@](O)(C(=O)CO)C[C@@H]3O[C@H]1C[C@H](N)[C@H](O)[C@H](C)O1` [doxorubicin], the “hair loss in patients” value in the data set with patients (human, in vivo) is 85-100%. In addition, the “alopecia in young rats after treatment” value in data set [1] was “develop alopecia”.
